From ChEMBL document CHEMBL4321785, “Challenges and Opportunities for Therapeutics Targeting the Voltage-Gated Sodium Channel Isoform NaV1.7” (J Med Chem, 2019) come the findings set out here.

Bounds are passed on as bounds.

Data set [1] concerns the target Sodium channel protein type 4 subunit alpha (Homo sapiens, UniProt P35499). Put plainly: Inhibition of human Nav1.4 expressed in HEK293 cells by electrophysiology assay. It counts as cell-based.
Data set [2] deals with Sodium channel protein type 2 subunit alpha (Homo sapiens, UniProt Q99250). Put plainly: Inhibition of human Nav1.2 expressed in HEK293 cells by electrophysiology assay. It counts as cell-based.
For data set [3], the target named is Sodium channel protein type 5 subunit alpha (Homo sapiens, UniProt Q14524). Put plainly: Inhibition of human Nav1.5 expressed in HEK293 cells by electrophysiology assay. It counts as cell-based.
Data set [4] addresses Sodium channel protein type 8 subunit alpha (Homo sapiens, UniProt Q9UQD0). Put plainly: Inhibition of human Nav1.6 expressed in HEK293 cells by electrophysiology assay. Type of data set: cell-based.
The target in data set [5] is Sodium channel protein type 10 subunit alpha (Homo sapiens, UniProt Q9Y5Y9). The data set can be described thus: Inhibition of human Nav1.8 expressed in HEK293 cells by electrophysiology assay. It counts as cell-based.
The species entered for data set [6] is Homo sapiens. The data set can be described thus: Selectivity index, ratio of IC50 for inhibition of human Nav1.2 expressed in HEK293 cells by electrophysiology assay to IC50 for inhibition of human Nav1.7 expressed in HEK293 cells by electrophysiology assay. It counts as cell-based.
The species named for data set [7] is Homo sapiens. Put plainly: Selectivity index, ratio of IC50 for inhibition of human Nav1.6 expressed in HEK293 cells by electrophysiology assay to IC50 for inhibition of human Nav1.7 expressed in HEK293 cells by electrophysiology assay. Type of data set: cell-based.
A short description of data set [8]: Ratio of unbound plasma concentration in mouse model of formalin-induced pain to IC50 for inhibition of mouse Nav1.7 expressed in HEK293 cells by electrophysiology assay. It counts as cell-based.
A short description of data set [9]: Ratio of unbound plasma concentration in mouse model of inherited erythromelalgia to IC50 for inhibition of human Nav1.7 expressed in HEK293 cells by electrophysiology assay. Type of data set: cell-based.
For data set [10], the species on record is Homo sapiens. Put plainly: Selectivity index, ratio of IC50 for inhibition of human Nav1.5 expressed in HEK293 cells by electrophysiology assay to IC50 for inhibition of human Nav1.7 expressed in HEK293 cells by electrophysiology assay. Type of data set: cell-based.
The species named for data set [11] is Homo sapiens. Put plainly: Selectivity index, ratio of IC50 for inhibition of human Nav1.1 expressed in HEK293 cells by electrophysiology assay to IC50 for inhibition of human Nav1.7 expressed in HEK293 cells by electrophysiology assay. Type of data set: cell-based.
Data set [12] is filed under the species Rattus norvegicus.
For data set [13], the species on record is Rattus norvegicus. This is another data set of the same source.
Data set [14] is filed under the species Rattus norvegicus. The source holds these as a separate data set.
A short description of data set [15]: Cmax in healthy human. The conditions noted are these: in vivo. It counts as ADME.

Sequence of Sodium channel protein type 2 subunit alpha (Q99250 whole entry): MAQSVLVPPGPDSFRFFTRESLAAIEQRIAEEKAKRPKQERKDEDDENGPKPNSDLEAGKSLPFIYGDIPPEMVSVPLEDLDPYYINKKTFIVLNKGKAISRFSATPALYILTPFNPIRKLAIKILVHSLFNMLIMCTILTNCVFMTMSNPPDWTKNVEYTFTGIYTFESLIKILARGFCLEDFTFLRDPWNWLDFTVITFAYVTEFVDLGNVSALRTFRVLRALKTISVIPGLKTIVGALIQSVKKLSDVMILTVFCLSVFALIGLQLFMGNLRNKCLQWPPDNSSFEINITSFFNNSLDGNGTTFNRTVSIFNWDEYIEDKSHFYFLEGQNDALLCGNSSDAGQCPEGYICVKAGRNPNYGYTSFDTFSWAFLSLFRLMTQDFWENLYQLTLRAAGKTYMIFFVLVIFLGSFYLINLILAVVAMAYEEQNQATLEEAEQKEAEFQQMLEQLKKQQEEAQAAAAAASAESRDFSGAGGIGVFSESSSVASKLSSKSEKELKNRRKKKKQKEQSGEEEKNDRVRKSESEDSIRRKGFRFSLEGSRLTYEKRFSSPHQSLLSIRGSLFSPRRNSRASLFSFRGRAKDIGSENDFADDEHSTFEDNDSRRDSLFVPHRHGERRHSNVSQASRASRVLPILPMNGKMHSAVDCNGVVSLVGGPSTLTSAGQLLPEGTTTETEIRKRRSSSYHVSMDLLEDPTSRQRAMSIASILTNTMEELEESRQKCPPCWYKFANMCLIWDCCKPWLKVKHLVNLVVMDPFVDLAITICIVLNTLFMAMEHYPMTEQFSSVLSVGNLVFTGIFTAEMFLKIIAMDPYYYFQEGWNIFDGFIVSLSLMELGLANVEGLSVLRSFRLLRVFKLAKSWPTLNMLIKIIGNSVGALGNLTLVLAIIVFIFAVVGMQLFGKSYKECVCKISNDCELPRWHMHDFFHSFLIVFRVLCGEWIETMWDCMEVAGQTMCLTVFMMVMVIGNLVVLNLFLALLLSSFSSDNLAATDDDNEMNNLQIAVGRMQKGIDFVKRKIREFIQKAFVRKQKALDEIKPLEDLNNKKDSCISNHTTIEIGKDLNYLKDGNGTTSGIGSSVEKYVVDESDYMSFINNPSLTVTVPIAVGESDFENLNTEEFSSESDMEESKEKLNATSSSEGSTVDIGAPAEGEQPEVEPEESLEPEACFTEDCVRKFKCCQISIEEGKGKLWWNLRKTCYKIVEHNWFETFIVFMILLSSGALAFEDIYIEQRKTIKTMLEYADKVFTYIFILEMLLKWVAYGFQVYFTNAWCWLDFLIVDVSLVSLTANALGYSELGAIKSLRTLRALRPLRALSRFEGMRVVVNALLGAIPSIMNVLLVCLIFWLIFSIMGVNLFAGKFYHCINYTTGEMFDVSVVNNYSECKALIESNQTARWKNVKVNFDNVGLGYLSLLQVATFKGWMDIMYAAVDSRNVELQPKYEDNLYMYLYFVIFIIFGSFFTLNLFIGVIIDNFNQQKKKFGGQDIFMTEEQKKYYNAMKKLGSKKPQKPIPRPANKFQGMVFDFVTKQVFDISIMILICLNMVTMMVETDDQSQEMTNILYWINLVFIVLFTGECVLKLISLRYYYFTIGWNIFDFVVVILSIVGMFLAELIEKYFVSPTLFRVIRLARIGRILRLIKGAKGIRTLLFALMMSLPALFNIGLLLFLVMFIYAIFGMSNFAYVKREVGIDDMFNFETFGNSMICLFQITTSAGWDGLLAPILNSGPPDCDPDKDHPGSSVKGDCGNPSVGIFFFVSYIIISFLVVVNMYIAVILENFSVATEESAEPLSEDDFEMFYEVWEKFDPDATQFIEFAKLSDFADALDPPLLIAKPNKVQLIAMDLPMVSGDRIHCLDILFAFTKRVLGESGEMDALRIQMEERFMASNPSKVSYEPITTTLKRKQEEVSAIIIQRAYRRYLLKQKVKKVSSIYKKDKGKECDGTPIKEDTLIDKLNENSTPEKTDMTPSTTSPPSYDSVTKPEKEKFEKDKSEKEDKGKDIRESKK
Sequence of Sodium channel protein type 8 subunit alpha (Q9UQD0 whole entry): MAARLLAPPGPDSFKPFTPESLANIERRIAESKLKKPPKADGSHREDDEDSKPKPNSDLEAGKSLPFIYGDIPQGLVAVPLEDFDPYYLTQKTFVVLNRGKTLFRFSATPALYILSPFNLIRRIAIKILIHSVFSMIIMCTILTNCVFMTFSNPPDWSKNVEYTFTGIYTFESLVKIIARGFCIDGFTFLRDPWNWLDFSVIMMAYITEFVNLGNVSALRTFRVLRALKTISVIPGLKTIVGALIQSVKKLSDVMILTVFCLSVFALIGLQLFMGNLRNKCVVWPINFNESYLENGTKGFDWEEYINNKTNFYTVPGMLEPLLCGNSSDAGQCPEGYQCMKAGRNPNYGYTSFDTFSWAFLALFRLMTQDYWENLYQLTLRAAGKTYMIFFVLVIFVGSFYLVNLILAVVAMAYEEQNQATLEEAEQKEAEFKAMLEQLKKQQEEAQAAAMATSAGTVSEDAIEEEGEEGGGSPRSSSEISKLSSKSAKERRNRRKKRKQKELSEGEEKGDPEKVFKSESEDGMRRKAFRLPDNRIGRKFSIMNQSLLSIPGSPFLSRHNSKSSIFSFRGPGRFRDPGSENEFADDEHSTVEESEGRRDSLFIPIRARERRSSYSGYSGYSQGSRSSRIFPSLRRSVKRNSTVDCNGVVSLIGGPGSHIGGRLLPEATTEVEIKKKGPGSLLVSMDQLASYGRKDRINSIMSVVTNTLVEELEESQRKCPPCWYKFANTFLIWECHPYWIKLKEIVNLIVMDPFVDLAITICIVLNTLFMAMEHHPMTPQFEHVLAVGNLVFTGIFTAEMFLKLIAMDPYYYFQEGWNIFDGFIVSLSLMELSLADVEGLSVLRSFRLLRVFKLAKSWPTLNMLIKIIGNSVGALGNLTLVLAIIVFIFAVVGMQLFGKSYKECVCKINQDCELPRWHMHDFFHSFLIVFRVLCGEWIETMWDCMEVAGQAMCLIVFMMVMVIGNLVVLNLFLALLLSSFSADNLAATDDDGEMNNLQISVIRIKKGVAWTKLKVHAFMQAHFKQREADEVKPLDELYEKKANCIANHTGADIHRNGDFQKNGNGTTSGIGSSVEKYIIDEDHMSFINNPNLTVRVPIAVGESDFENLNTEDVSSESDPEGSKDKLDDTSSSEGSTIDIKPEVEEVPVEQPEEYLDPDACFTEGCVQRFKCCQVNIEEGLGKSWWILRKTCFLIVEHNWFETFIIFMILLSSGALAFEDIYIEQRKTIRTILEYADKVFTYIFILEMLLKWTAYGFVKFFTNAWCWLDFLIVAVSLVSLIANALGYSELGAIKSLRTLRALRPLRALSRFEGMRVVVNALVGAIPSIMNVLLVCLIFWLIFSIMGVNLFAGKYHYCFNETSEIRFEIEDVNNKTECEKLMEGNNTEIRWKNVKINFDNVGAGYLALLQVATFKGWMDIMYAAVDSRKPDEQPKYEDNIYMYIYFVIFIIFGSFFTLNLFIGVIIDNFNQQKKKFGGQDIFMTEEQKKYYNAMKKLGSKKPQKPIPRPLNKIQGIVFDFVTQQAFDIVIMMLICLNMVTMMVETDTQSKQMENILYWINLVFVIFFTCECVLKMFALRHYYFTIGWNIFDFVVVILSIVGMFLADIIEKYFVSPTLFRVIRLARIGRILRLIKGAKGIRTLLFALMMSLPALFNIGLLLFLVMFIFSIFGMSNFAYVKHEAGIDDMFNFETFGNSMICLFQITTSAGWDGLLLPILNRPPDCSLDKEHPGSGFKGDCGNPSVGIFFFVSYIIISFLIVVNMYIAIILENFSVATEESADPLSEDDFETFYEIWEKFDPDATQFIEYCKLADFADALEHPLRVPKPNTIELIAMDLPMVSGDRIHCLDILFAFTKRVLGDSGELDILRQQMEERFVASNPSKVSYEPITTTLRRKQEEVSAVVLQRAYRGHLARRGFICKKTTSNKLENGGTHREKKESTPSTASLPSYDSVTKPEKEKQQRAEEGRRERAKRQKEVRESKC

Regarding `N#Cc1cc(S(=O)(=O)Nc2ncns2)ccc1Oc1ccc(-c2cccc(C(F)(F)F)c2)cc1-c1ccnc(CNCCC2CCNCC2)c1`, the concentration for half-maximal inhibition (IC50) in data set [1] was 1500 nM; in data set [2] it was 3 nM; in [3] it was 2600 nM; in data set [4], 5.8 nM; in data set [5], 26000 nM.

Take `O=C(NS(=O)(=O)N1CCC1)c1cc(C2CC2)c(OCC23CC4CC(CC(C4)C2)C3)cc1F`: the half-inhibitory concentration (IC50) in data set [2] stood at 20 nM; in data set [3], 49 nM; in [4], 480 nM.

Regarding `CC1(COc2cc(F)c(C(=O)NS(=O)(=O)C3CC3)cc2C2CC2)CCC2(CC1)CC2`, the Ratio IC50 in the data set filed under Homo sapiens [6] worked out at 3.3; in the data set listed under Homo sapiens [7], 63; in the data set listed under Homo sapiens [10], 83; in the data set listed under Homo sapiens [11], 10. The Ratio in [8] is given as 22; in data set [9], 5.2.

For `NC1=N[C@H](O)[C@H]2[C@H]3O[C@]4(O)O[C@@H]([C@@H](O)[C@@]2(N1)[C@@H]4O)[C@]3(O)CO`, the ED in the data set filed under Rattus norvegicus [12] was 6 µg/kg; in the data set filed under Rattus norvegicus [13], 1 to 3 µg/kg; in the data set listed under Rattus norvegicus [14] it was 1 µg/kg.

Take `Nc1[nH]ncc1-c1cc(Cl)ccc1Oc1cc(F)c(S(=O)(=O)Nc2cscn2)cc1Cl` [PF-05089771]: the Cmax in data set [15] was more than 10000 ng/mL.

The term IC50 denotes the concentration that gives 50% inhibition. Read a low IC50 as higher potency. In general, Cmax refers to the maximum level reached in the sampled fluid or tissue.
